Our source for the Ki values is US20260193170A1 (University of Copenhagen, priority 2022, published 2026).

The test addresses T1, human Keap1 Kelch domain (Homo sapiens, UniProt Q14145).
T1 construct: human Keap1 Kelch domain (residue 321-609, UniProt Q14145); made in house; host or cells: Escherichia coli BL21 (DE3) pLysS, pRSET A vector
Description: Fluorescence polarization (FP) competition assay, Cy5-Nrf2 peptide probe. The format is binding. As to conditions: heterologous competition FP; Keap1 Kelch 14 nM, Cy5-Nrf2 probe 3 nM, 4% DMSO; mean ± SEM. As for the experimental part:
The binding affinities between the fluorescent peptide probe Cy5-Nrf2 (SEQ: Cy5-[…]-NH2) and the human Keap1 Kelch domain were determined as Kd values by saturation binding experiments, where increasing concentrations of Keap1 (0-300 nM) were added to a fixed concentration of peptide probe (3 nM). The assay was performed in a 1× HBSTET buffer (10 mM HEPES, 150 mM NaCl, 0.005% Tween20, 3 mM ethylenediaminetetraacetic acid (EDTA), 1 mM TCEP, pH=7.4) using black flat-bottom 384-well plates (Corning Life Sciences, NY), a volume of 30 μL/well, and a final DMSO concentration of 4% or 8%. The assay plate was spun down to ascertain proper mixing and removal of potential air bubbles and incubated for 10-15 min at room temperature before measuring the FP levels on a Safire2 plate reader (Tecan, Mannedorf, Switzerland). The g-factor was adjusted at each experiment so that a series of three blank wells containing probe but no Keap1 Kelch defined the baseline FP value. The Cy5-Nrf2 probe was measured at excitation/emission values of 635:670 nm. The FP values were fitted to the one-site specific binding equation: Y=Bmax×X/(Kd+X), with Bmax being the maximal FP value, X the Keap1 Kelch concentration, and Y the variable FP values. The Kd values were derived from the resulting binding saturation curve as being equal to the Keap1 Kelch concentration, where the curve is half-saturated.
The affinities between nonfluorescent small molecule Keap1 inhibitors and Keap1 Kelch were determined as Ki values in a heterologous competition FP binding assay. This was done by adding increasing concentration of test compound (2-fold serial dilutions, 12 concentrations tested per inhibition curve as duplicates) to a fixed concentration of Keap1 Kelch (14 nM) and the Cy5-Nrf2 peptide probe (3 nM) in the same HBSTET buffer and conditions as described above (final DMSO concentrations were 4%). FP values were fitted to the equation Y=Bottom+(Top−Bottom)/[1+(10^HillSlope×(log IC50−X))], where X is the logarithmic value of compound concentration. Hereby, the IC50 value was obtained, which together with the […] value and probe and Keap1 Kelch concentrations was used to calculate the theoretical competitive inhibition constant, the Ki value. 43 Ki values are shown as mean±SEM (standard error of mean) if based on two or more individual measurements.
For orientation: Polarisation of emitted light reports the rotation of a fluorescent probe.

T1 sequence (Q14145 321-609): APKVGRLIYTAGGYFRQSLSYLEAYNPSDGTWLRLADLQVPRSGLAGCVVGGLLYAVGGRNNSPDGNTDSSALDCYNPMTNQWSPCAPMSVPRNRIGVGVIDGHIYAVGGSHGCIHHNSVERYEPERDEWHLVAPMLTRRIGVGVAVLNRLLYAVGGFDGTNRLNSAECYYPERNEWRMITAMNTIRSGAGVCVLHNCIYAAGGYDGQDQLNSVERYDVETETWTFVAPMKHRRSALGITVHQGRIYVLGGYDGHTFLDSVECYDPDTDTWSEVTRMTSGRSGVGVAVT

In the case of `CC(C)(C(=O)O)C(c1ccc2c(c1)OCO2)c1ccc2ccc(OCC(=O)NC3CCCCCC3)cc2c1` (stereo not shown) [7d, 3-(benzo[d][1,3]dioxol-5-yl)-3-(7-(2-(cycloheptylamino)-2-oxoethoxy)naphthalen-2-yl)-2,2-dimethylpropanoic acid], the Ki is 0.003 ± 0.001 µM.
On to `Cc1c(Cl)cccc1C(CC(=O)O)c1ccc2ccc(OCC(=O)NC3C=CCCC3)cc2c1` (stereo not shown) [4c, 3-(3-Chloro-2-methylphenyl)-3-(7-(2-(cyclohex-2-en-1-ylamino)-2-oxoethoxy)naphthalen-2-yl)propanoic acid], for which the Ki was found to be 0.038 ± 0.006 µM.
Under `Cc1cc2c(cc1C(CC(=O)O)c1ccc3ccc(OCC(=O)NC4CCCCCC4)cc3c1)OCO2` (stereo not shown) [2n, 3-(7-(2-(cycloheptylamino)-2-oxoethoxy)naphthalen-2-yl)-3-(6-methylbenzo[d][1,3]dioxol-5-yl)propanoic acid] stands 0.008 ± 0.002 µM; under `Cc1cc2c(cc1C(CC(=O)O)c1ccc3ccc(OCC(=O)NC4C=CCCC4)cc3c1)OC(F)(F)O2` (stereo not shown) [4l, 3-(7-(2-(cyclohex-2-en-1-ylamino)-2-oxoethoxy)naphthalen-2-yl)-3-(2,2-difluoro-6-methylbenzo[d][1,3]dioxol-5-yl)propanoic acid], 0.016 ± 0.005 µM; under `CC(Oc1ccc2ccc(C(CC(=O)O)c3ccc4c(c3)OCO4)cc2c1)C(=O)NC1CCCCCC1` (stereo not shown) [7a, 3-(Benzo[d][1,3]dioxol-5-yl)-3-(7-((1-(cycloheptylamino)-1-oxopropan-2-yl)oxy)naphthalen-2-yl)propanoic acid], 0.153 ± 0.012 µM.
Under `Cc1cc2c(cc1C(CC(=O)O)c1ccc3ccc(OCC(=O)NC4C=CCCC4)cc3c1)CCO2` (stereo not shown) [4n, 3-(7-(2-(cyclohex-2-en-1-ylamino)-2-oxoethoxy)naphthalen-2-yl)-3-(6-methyl-2,3-dihydrobenzofuran-5-yl)propanoic acid] stands 0.018 ± 0.002 µM.
The figure for `COc1ccc(C)c(C(CC(=O)O)c2ccc3ccc(OCC(=O)NC4CCCCC4)cc3c2)c1` (stereo not shown) [3m, 3-(7-(2-(cyclohexylamino)-2-oxoethoxy)naphthalen-2-yl)-3-(5-methoxy-2-methylphenyl)propanoic acid] is 0.15 ± 0.014 µM.
As to `COc1ccc(C(CC(=O)O)c2ccc3ccc(OCC(=O)NC4C=CCCC4)cc3c2)c(C)c1` (stereo not shown) [4k, 3-(7-(2-(cyclohex-2-en-1-ylamino)-2-oxoethoxy)naphthalen-2-yl)-3-(4-methoxy-2-methylphenyl)propanoic acid], the Ki is 0.017 ± 0.004 µM.
Under `Cc1c(Cl)cccc1C(CC(=O)O)c1ccc2ccc(OCC(=O)NC3CCCCC3)cc2c1` (stereo not shown) [3e, 3-(3-chloro-2-methylphenyl)-3-(7-(2-(cyclohexylamino)-2-oxoethoxy)naphthalen-2-yl)propanoic acid] stands 0.066 ± 0.006 µM; under `O=C(O)CC(c1ccc2c(c1)OCO2)c1ccc2ccc(OCC(=O)NC3CCCC3)cc2c1` (stereo not shown) [6d, 3-(benzo[d][1,3]dioxol-5-yl)-3-(7-(2-(cyclopentylamino)-2-oxoethoxy)naphthalen-2-yl)propanoic acid], 0.062 ± 0.005 µM.
Under `O=C(O)CCc1ccc2ccc(OCC(=O)NC3CCOCC3)cc2c1` [1b, 3-(7-(2-Oxo-2-((tetrahydro-2H-pyran-4-yl)amino)ethoxy)naphthalen-2-yl)propanoic acid] stands 38 ± 3 µM; under `O=C(O)CCc1ccc2ccc(OCC(=O)NN3CCOCC3)cc2c1` [1c, 3-(7-(2-Morpholinoamino-2-oxoethoxy)naphthalen-2-yl)propanoic acid], 268 ± 29 µM; under `O=C(O)CC(c1ccc2c(c1)OCO2)c1ccc2ccc(OCC(=O)NC3CCCCCC3)cc2c1` (stereo not shown) [2m, 3-(benzo[d][1,3]dioxol-5-yl)-3-(7-(2-(cycloheptylamino)-2-oxoethoxy)naphthalen-2-yl)propanoic acid], 0.023 ± 0.002 µM.
Under `Cc1nc2[nH]ccc2cc1C(CC(=O)O)c1ccc2ccc(OCC(=O)NC3CCCCC3)cc2c1` (stereo not shown) [3n, 3-(7-(2-(cyclohexylamino)-2-oxoethoxy)naphthalen-2-yl)-3-(6-methyl-1H-pyrrolo[2,3-b]pyridin-5-yl)propanoic acid] stands 0.129 ± 0.013 µM; under `O=C(O)CC(c1ccc2c(c1)OCO2)c1ccc2ccc(OCC(=O)NC3CCC(F)(F)CC3)cc2c1` (stereo not shown) [6b, 3-(benzo[d][1,3]dioxol-5-yl)-3-(7-(2-((4,4-difluorocyclohexyl)amino)-2-oxoethoxy)naphthalen-2-yl)propanoic acid], 0.08 ± 0.01 µM.
Consider `O=C(O)CC(c1ccc2ccc(OCC(=O)N[C@H]3C[C@@H]4CC[C@H]3C4)cc2c1)c1cc2c(cc1Cl)OCO2` (stereo partly drawn) [5b, 3-(7-(2-(((1S,2S,4R)-bicyclo[2.2.1]heptan-2-yl)amino)-2-oxoethoxy)naphthalen-2-yl)-3-(6-chlorobenzo[d][1,3]dioxol-5-yl)propanoic acid], for which the Ki is 0.004 µM.
The figure for `O=C(O)CC(c1ccc2c(c1)OCO2)c1ccc2ccc(OCC(=O)N[C@H]3CC[C@H](C(F)(F)F)CC3)cc2c1` (stereo partly drawn) [6i, 3-(benzo[d][1,3]dioxol-5-yl)-3-(7-(2-oxo-2-((trans-4-(trifluoromethyl)cyclohexyl)amino)ethoxy)naphthalen-2-yl)propanoic acid] is 0.397 ± 0.041 µM.
Under `O=C(O)CC(c1ccc2c(c1)OC(F)(F)O2)c1ccc2ccc(OCC(=O)NC3CCCCC3)cc2c1` (stereo not shown) [3k, 3-(7-(2-(cyclohexylamino)-2-oxoethoxy)naphthalen-2-yl)-3-(2,2-difluorobenzo[d][1,3]dioxol-5-yl)propanoic acid] stands 0.052 ± 0.003 µM.
The figure for `O=C(O)CC(c1ccc2c(c1)CCO2)c1ccc2ccc(OCC(=O)NC3C=CCCC3)cc2c1` (stereo not shown) [4e, 3-(7-(2-(Cyclohex-2-en-1-ylamino)-2-oxoethoxy)naphthalen-2-yl)-3-(2,3-dihydrobenzofuran-5-yl)propanoic acid] is 0.027 ± 0.004 µM; for `Cc1c(Cl)cccc1C(CC(=O)O)c1ccc2ccc(OCC(=O)NC3CCCCCC3)cc2c1` (stereo not shown) [2l, 3-(3-chloro-2-methylphenyl)-3-(7-(2-(cycloheptylamino)-2-oxoethoxy)naphthalen-2-yl)propanoic acid] it is 0.06 ± 0.008 µM; for `O=C(O)CC(c1ccc2c(c1)OCO2)c1ccc2ccc(OCC(=O)N[C@@H]3C[C@@H]4CC[C@H]3C4)cc2c1` (stereo partly drawn) [6h, 3-(benzo[d][1,3]dioxol-5-yl)-3-(7-(2-(((1S,2R,4R)-bicyclo[2.2.1]heptan-2-yl)amino)-2-oxoethoxy)naphthalen-2-yl)propanoic acid] it is 0.019 ± 0.003 µM.
Take `CC(C)CNC(=O)COc1ccc2ccc(C(CC(=O)O)c3ccc4c(c3)OCO4)cc2c1` (stereo not shown) [6c, 3-(benzo[d][1,3]dioxol-5-yl)-3-(7-(2-(isobutylamino)-2-oxoethoxy)naphthalen-2-yl)propanoic acid]: the Ki was found to be 0.138 ± 0.024 µM.
The figure for `O=C(O)CC(c1ccc2ccc(OCC(=O)NC3CCCCCC3)cc2c1)c1cc2c(cc1Cl)OCO2` (stereo not shown) [2z, 3-(6-chlorobenzo[d][1,3]dioxol-5-yl)-3-(7-(2-(cycloheptylamino)-2-oxoethoxy)naphthalen-2-yl)propanoic acid] is 0.009 ± 0.002 µM.
Take `Cc1cc2c(cc1C(CC(=O)O)c1ccc3ccc(OCC(=O)N[C@H]4C[C@@H]5CC[C@H]4C5)cc3c1)OCCO2` (stereo partly drawn) [5d, 3-(7-(2-(((1S,2S,4R)-bicyclo[2.2.1]heptan-2-yl)amino)-2-oxoethoxy)naphthalen-2-yl)-3-(7-methyl-2,3-dihydrobenzo[b][1,4]dioxin-6-yl)propanoic acid]: the Ki was around 0.001 µM.
The figure for `COc1cccc(C(CC(=O)O)c2ccc3ccc(OCC(=O)NC4CCCCCC4)cc3c2)c1` (stereo not shown) [2h, 3-(7-(2-(Cycloheptylamino)-2-oxoethoxy)naphthalen-2-yl)-3-(3-methoxyphenyl)propanoic acid] is 0.284 ± 0.03 µM.
The figure for `COc1ccc(NC(=O)COc2ccc3ccc(CCC(=O)O)cc3c2)cc1` [1e, 3-(7-(2-((4-Methoxyphenyl)amino)-2-oxoethoxy)naphthalen-2-yl)propanoic acid] is 75 ± 10 µM.
`O=C(O)CC(c1ccc2c(c1)OCO2)c1ccc2ccc(OCC(=O)N[C@H]3CC[C@@H](C(F)(F)F)CC3)cc2c1` (stereo partly drawn) [6j, 3-(benzo[d][1,3]dioxol-5-yl)-3-(7-(2-oxo-2-((cis-4-(trifluoromethyl)cyclohexyl)amino)ethoxy)naphthalen-2-yl)propanoic acid]: the Ki was found to be 0.045 ± 0.001 µM.
Under `O=C(O)CC(c1ccc2c(c1)OCO2)c1ccc2ncc(OCC(=O)NC3CCCCCC3)cc2c1` (stereo not shown) [9a, 3-(benzo[d][1,3]dioxol-5-yl)-3-(3-(2-(cycloheptylamino)-2-oxoethoxy)quinolin-6-yl)propanoic acid] stands 0.522 ± 0.067 µM.

In general, Ki refers to a dissociation constant, usually derived from enzyme kinetics or from competition with a known ligand.
